According to ChEMBL document CHEMBL5252531, “2015 Philip S. Portoghese Medicinal Chemistry Lectureship. Curing Hepatitis C Virus Infection with Direct-Acting Antiviral Agents: The Arc of a Medicinal Chemistry Triumph” (J Med Chem, 2016):
pEC50, pIC50, pKi: −log10 of the molar value. Square brackets hold non-standard residues; d marks the D form. Peptide text beside a SMILES is read from it. * marks the point of attachment. Dip = N[C@H](C(=O)O)C(c1ccccc1)c1ccccc1; CH2(1-naphthyl) = c1ccc2c(C*)cccc2c1; Abu(4,4-F2) = N[C@@H](CC(F)F)C(=O)O; Hyp = O=C(O)[C@@H]1C[C@@H](O)CN1; Cha = N[C@@H](CC1CCCCC1)C(=O)O; Chg = N[C@H](C(=O)O)C1CCCCC1; Ac3c = NC1(C(=O)O)CC1

Legend:
Hepatitis C virus [1] = experiment: Antiviral activity against HCV genotype 1b; format: functional, organism-based, Hepacivirus hominis
Hepatitis C virus [2] = experiment: Antiviral activity against HCV genotype 1a; format: functional, organism-based, Hepacivirus hominis
[3] = Half life in dog liver microsomes; format: ADME, Canis lupus familiaris, Microsome
[4] = target: RNA-directed RNA polymerase (Hepacivirus hominis, UniProt O39930); experiment: Inhibition of Hepatitis C virus NS5B polymerase
Hepatitis C virus [5] = experiment: Antiviral activity against HCV GT1a-genotype assessed as inhibition of viral replication; format: functional, organism-based, Hepacivirus hominis
[6] = target: T1, Nuclear receptor subfamily 1 group I member 2 (Homo sapiens, UniProt O75469); experiment: Inhibition of PXR (unknown origin)
T1 sequence (O75469 whole entry): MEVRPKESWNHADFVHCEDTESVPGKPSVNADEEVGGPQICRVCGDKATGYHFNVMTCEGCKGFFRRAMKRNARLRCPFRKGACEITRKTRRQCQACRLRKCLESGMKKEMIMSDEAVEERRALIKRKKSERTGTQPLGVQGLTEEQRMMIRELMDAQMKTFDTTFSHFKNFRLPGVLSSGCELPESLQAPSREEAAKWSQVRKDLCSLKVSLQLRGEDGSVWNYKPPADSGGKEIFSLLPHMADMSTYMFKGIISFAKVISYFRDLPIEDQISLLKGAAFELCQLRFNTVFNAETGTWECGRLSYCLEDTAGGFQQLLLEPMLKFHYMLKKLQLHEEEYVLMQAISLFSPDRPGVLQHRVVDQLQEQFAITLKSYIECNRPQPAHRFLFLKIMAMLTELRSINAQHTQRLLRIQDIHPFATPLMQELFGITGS

Hepatitis C virus [7] = experiment: Antiviral activity against HCV GT1b-genotype assessed as viral growth inhibition measured after 24 hrs; format: functional, organism-based, Hepacivirus hominis; details: Hepatitis C virus, GT1b-genotype, 24 h
Hepatitis C virus [8] = experiment: Antiviral activity against HCV genotype 1b Tyr93His mutant; details: Hepacivirus hominis
Hepatitis C virus [9] = experiment: Antiviral activity against HCV genotype 1b harboring NS5A Y93H mutant; format: functional, organism-based, Hepacivirus hominis
[10] = Binding affinity to Hepatitis C virus NS3 assessed as inhibition constant; parameters: species or system Hepacivirus hominis
[11] = Binding affinity to Hepatitis C virus NS3 protease (1027 to 1206 residues) expressed in Escherichia coli assessed as inhibition constant; parameters: species or system Hepacivirus hominis
[12] = target: T2, Hepatitis C virus serine protease, NS3/NS4A (Hepatitis C virus, UniProt A3EZI9+D2K2A8); experiment: Inhibition of Hepatitis C virus NS3/NS4A protease; format: protein-complex assay, Hepacivirus hominis
[13] = target: T2, Hepatitis C virus serine protease, NS3/NS4A; experiment: Inhibition of HCV NS4A-NS3 protease; format: protein-complex assay, Hepacivirus hominis

T2 sequence (D2K2A8 whole entry): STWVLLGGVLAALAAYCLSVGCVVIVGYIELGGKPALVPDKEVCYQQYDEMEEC
T2 sequence (A3EZI9 whole entry): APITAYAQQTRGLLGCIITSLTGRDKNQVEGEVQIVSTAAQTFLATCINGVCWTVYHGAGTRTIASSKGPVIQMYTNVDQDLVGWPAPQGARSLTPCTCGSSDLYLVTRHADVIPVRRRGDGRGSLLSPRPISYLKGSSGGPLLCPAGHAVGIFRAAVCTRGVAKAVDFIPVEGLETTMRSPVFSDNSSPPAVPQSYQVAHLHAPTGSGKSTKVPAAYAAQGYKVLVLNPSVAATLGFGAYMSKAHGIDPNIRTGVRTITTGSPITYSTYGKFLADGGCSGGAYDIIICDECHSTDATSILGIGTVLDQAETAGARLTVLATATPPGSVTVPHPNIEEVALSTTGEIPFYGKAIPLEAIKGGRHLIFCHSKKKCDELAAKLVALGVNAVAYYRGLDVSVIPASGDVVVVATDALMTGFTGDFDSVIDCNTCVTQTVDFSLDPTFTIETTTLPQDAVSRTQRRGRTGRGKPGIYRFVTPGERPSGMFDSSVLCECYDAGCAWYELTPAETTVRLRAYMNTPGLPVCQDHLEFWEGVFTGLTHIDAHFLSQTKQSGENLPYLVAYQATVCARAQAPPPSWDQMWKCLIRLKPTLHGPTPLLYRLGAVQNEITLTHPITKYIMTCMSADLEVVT
RNA-directed RNA polymerase, sequence (O39930 whole entry): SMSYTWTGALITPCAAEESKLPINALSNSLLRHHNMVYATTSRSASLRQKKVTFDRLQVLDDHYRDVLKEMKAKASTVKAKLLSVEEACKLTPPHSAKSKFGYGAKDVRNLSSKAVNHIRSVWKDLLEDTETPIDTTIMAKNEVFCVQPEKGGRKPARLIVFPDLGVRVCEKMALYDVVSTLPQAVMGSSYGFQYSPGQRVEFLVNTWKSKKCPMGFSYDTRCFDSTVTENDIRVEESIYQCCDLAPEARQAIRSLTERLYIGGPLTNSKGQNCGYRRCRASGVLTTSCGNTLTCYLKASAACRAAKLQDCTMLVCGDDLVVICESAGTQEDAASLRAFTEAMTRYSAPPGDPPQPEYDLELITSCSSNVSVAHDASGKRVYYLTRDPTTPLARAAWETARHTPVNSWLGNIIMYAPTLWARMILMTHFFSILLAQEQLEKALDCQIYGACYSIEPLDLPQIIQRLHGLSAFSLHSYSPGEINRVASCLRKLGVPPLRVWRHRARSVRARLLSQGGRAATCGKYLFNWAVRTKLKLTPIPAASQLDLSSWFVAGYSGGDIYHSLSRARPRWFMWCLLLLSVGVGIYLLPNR

**Q.** What does the source list for `COC(=O)N[C@@H](C(=O)N1CCC[C@H]1c1ncc(-c2ccc(-c3ccc(-c4cnc([C@@H]5CCCN5C(=O)[C@H](NC(=O)OC)c5ccccc5)[nH]4)cc3)cc2)[nH]1)c1ccccc1`?
**A.** pEC50 (Hepatitis C virus [1]): 11.17; pEC50 (Hepatitis C virus [2]): 10.55

**Q.** Which half-life [3] does the source give for `C=C[C@@H]1C[C@]1(NC(=O)[C@@H]1C[C@@H](Oc2cc(-c3ccccc3)nc3cc(OC)ccc23)CN1C(=O)[C@@H](NC(=O)OC(C)(C)C)C(C)(C)C)C(=O)NS(=O)(=O)C1CC1` here?
**A.** 2.83 h

**Q.** With `Cn1c(-c2ccccc2)c(C2CCCCC2)c2ccc(C(=O)O)cc21` as the compound, how does the pIC50 [4] read?
**A.** 6.92

**Q.** With `COc1ccc2c(c1)C=C(C(=O)N1C[C@@H](C)O[C@@H](C)C1)Cn1c-2c(C2CCCCC2)c2ccc(C(=O)NS(=O)(=O)N(C)C)cc21` as the compound, how does the pEC50 (Hepatitis C virus [5]) read?
**A.** 7.40

**Q.** What about the pIC50 [6] of the same compound?
**A.** < 5.00

**Q.** And the pEC50 (Hepatitis C virus [7])?
**A.** 7.40

**Q.** With `O=C1N[C@H]2[C@H](CS[C@H]2CCCCC(=O)N2CCC[C@H]2C(=O)Nc2ccc(/C=C/c3ccc(NC(=O)[C@@H]4CCCN4C(=O)Cc4ccccc4)cc3)cc2)N1` as the compound, how does the pEC50 (Hepatitis C virus [1]) read?
**A.** < 5.00

**Q.** And the pEC50 (Hepatitis C virus [8])?
**A.** < 5.00

**Q.** And the pEC50 (Hepatitis C virus [2])?
**A.** 7.48

**Q.** With `C[C@H](NC(=O)Cc1ccccc1)C(=O)Nc1ccc(C2(O)C(=O)N(Cc3ccco3)C(=S)N2c2cccc(F)c2)cc1` (stereo partly specified) as the compound, how does the pEC50 (Hepatitis C virus [9]) read?
**A.** 7.37

**Q.** What does the source list for `CC(C)C[C@H](NC(=O)[C@H](CCC(=O)O)NC(=O)OC(C)(C)C)C(=O)NC(CC(F)F)C(=O)C(=O)O` (stereo partly specified)?
**A.** pKi [10]: 4.77; pKi [11]: 7.57

**Q.** With `Fc1cccc(NC(=S)NCc2ccco2)c1` as the compound, how does the pEC50 (Hepatitis C virus [9]) read?
**A.** 9.22

**Q.** With `COc1ccc2c(c1)[C@@H]1C[C@]1(C(=O)N1C[C@@H](C)O[C@@H](C)C1)Cn1c-2c(C2CCCCC2)c2ccc(C(=O)NS(=O)(=O)N(C)C)cc21` as the compound, how does the pEC50 (Hepatitis C virus [5]) read?
**A.** 9.00

**Q.** And the pEC50 (Hepatitis C virus [7])?
**A.** 8.52

**Q.** With `CC(=O)N[C@@H](CC(=O)O)C(=O)N[C@@H](CCC(=O)O)C(=O)N[C@H](C(=O)N[C@@H](CCC(=O)O)C(=O)N[C@@H](CC1CCCCC1)C(=O)N[C@@H](CC(F)F)C(=O)O)C(c1ccccc1)c1ccccc1` (Ac-DE[Dip]E[Cha][Abu(4,4-F2)]-OH) as the compound, how does the pKi [12] read?
**A.** 8.52

**Q.** With `CC(=O)N[C@H](C(=O)N[C@H](C(=O)N1C[C@H](OCc2cccc3ccccc23)C[C@H]1C(=O)NC1(C(=O)O)CC1)C(C)C)C1CCCCC1` (Ac-[Chg]V[Hyp](CH2(1-naphthyl))[Ac3c]-OH) as the compound, how does the pIC50 [13] read?
**A.** 5.46

**Q.** With `COc1ccc2c(c1)C1CC1(C(=O)N1C3CCC1CN(C)C3)Cn1c-2c(C2CCCCC2)c2ccc(C(=O)NS(=O)(=O)N(C)C)cc21` (racemic) as the compound, how does the pEC50 (Hepatitis C virus [1]) read?
**A.** 6.68

**Q.** And the pEC50 (Hepatitis C virus [2])?
**A.** 8.52

**Q.** With Ac-DEMEEC-OH as the compound, how does the pKi [10] read?
**A.** 6.22
